According to the supplement of paper PMC11451515:

Assays:
Conditions in all cases: 48 h
SEM cells [1] = test: AUC of viability dose-response curve (% viability x log10 dose units); higher = less sensitive
In short: (§1)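 Leukemia cells adapted to each medium were seeded in 1536-well plates (500 or 1000 cells/well) and given library compounds in DMSO for 48 h at 37°C. The 11 threefold doses spanned 47 μM to 0.79 nM, and CellTiter-Glo One luminescence was normalised per plate to DMSO and cell-free wells before four-parameter log-logistic fitting on log10 dose. Area under the curve was integrated with the trapezoidal rule, scaling curves above full viability and removing curves that failed quality control.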

NOMO1 [2] = test: as above
In short: as §1

P12-Ichikawa [3] = test: cell viability relative to DMSO control; higher = less cytotoxic
In short: (§2)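 Leukemia cells (NOMO1 or SEM, 500 cells/well; P12-Ichikawa, 1000 cells/well) were seeded in 5 μl in 1536-well plates after at least four passages of adaptation to each medium. They received library compounds in DMSO by pin dosing, 11 threefold points from 47 μM to 0.79 nM. Luminescence with CellTiter-Glo One was read after 48 h at 37°C. Viability is stated per plate relative to DMSO wells, with cell-free wells as background.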

SEM cells [4] = test: as above
In short: as §2

NOMO1 [5] = test: as above
In short: as §2

P12-Ichikawa [6] = test: AUC of viability dose-response curve (% viability x log10 dose units); higher = less sensitive
In short: as §1

c1ccc2c(CN3CCNCC3)cccc2c1
AUC of viability dose-response curve
Conditions | HPLM + 10% dialyzed FBS | RPMI 5 mM glucose + 10% FBS | RPMI 5 mM glucose + 10% dialyzed FBS
NOMO1 [2] | 462 | 455 | 456
SEM cells [1] | 465 | 473 | 454

cell viability [%]
Conditions | NOMO1 [5] | P12-Ichikawa [3] | SEM cells [4]
HPLM + 10% dialyzed FBS, 0.000781 µM | 99.6 | 111 | 102
HPLM + 10% dialyzed FBS, 0.00234 µM | 113 | 112 | 102
HPLM + 10% dialyzed FBS, 0.00702 µM | 124 | 113 | 115
HPLM + 10% dialyzed FBS, 0.0211 µM | 106 | 108 | 108
HPLM + 10% dialyzed FBS, 0.0632 µM | 112 | 113 | 100
HPLM + 10% dialyzed FBS, 0.19 µM | 121 | 112 | 126
HPLM + 10% dialyzed FBS, 0.569 µM | 113 | 109 | 108
HPLM + 10% dialyzed FBS, 1.71 µM | 112 | 116 | 107
HPLM + 10% dialyzed FBS, 5.12 µM | 104 | 118 | 102
HPLM + 10% dialyzed FBS, 15.4 µM | 99.7 | 111 | 98.8
HPLM + 10% dialyzed FBS, 46.1 µM | 93.7 | 35 | 98.8
RPMI 5 mM glucose + 10% FBS, 0.000781 µM | 103 | 106 | 85.5
RPMI 5 mM glucose + 10% FBS, 0.00234 µM | 124 | 104 | 104
RPMI 5 mM glucose + 10% FBS, 0.00702 µM | 115 | 102 | 98.6
RPMI 5 mM glucose + 10% FBS, 0.0211 µM | 117 | 112 | 107
RPMI 5 mM glucose + 10% FBS, 0.0632 µM | 117 | 111 | 97.4
RPMI 5 mM glucose + 10% FBS, 0.19 µM | 126 | 107 | 101
RPMI 5 mM glucose + 10% FBS, 0.569 µM | 115 | 112 | 97.1
RPMI 5 mM glucose + 10% FBS, 1.71 µM | 133 | 111 | 103
RPMI 5 mM glucose + 10% FBS, 5.12 µM | 110 | 112 | 92.7
RPMI 5 mM glucose + 10% FBS, 15.4 µM | 99.9 | 110 | 101
RPMI 5 mM glucose + 10% FBS, 46.1 µM | 51.6 | 26.4 | 105
RPMI 5 mM glucose + 10% dialyzed FBS, 0.000781 µM | 108 | 107 | 97.7
RPMI 5 mM glucose + 10% dialyzed FBS, 0.00234 µM | 113 | 108 | 106
RPMI 5 mM glucose + 10% dialyzed FBS, 0.00702 µM | 106 | 109 | 126
RPMI 5 mM glucose + 10% dialyzed FBS, 0.0211 µM | 117 | 107 | 124
RPMI 5 mM glucose + 10% dialyzed FBS, 0.0632 µM | 115 | 114 | 128
RPMI 5 mM glucose + 10% dialyzed FBS, 0.19 µM | 122 | 115 | 122
RPMI 5 mM glucose + 10% dialyzed FBS, 0.569 µM | 129 | 117 | 106
RPMI 5 mM glucose + 10% dialyzed FBS, 1.71 µM | 122 | 110 | 131
RPMI 5 mM glucose + 10% dialyzed FBS, 5.12 µM | 116 | 118 | 95.7
RPMI 5 mM glucose + 10% dialyzed FBS, 15.4 µM | 91.7 | 119 | 103
RPMI 5 mM glucose + 10% dialyzed FBS, 46.1 µM | 64.9 | 41.1 | 84

N=C1S/C(=C\c2ccc(-c3ccc4c(c3)C(=O)NC4=O)o2)C(=O)N1c1ccc(Br)cc1
AUC of viability dose-response curve
Conditions | NOMO1 [2] | P12-Ichikawa [6] | SEM cells [1]
HPLM + 10% dialyzed FBS | 444 | 452 | 453
RPMI 5 mM glucose + 10% FBS | 464 | 443 | 365
RPMI 5 mM glucose + 10% dialyzed FBS | 459 | 448 | 458

CN(C)CC(=O)N1CCC(CC1)C2=CC=C(NC(=O)C3=NC(=C[NH]3)C#N)C(=C2)\C4=C\CCCC4
AUC of viability dose-response curve
Conditions | NOMO1 [2] | P12-Ichikawa [6] | SEM cells [1]
HPLM + 10% dialyzed FBS | 458 | 467 | 359
RPMI 5 mM glucose + 10% FBS | 454 | 463 | 358
RPMI 5 mM glucose + 10% dialyzed FBS | 456 | 443 | 348

CC(C)CC(=O)Nc1n[nH]c2c1CN(C(=O)C1CCN(C)CC1)C2(C)C
AUC of viability dose-response curve
Conditions | NOMO1 [2] | P12-Ichikawa [6] | SEM cells [1]
HPLM + 10% dialyzed FBS | 331 | 311 | 320
RPMI 5 mM glucose + 10% FBS | 370 | 351 | 338
RPMI 5 mM glucose + 10% dialyzed FBS | 325 | 345 | 338

NOMO1 [5], HPLM + 10% dialyzed FBS
Conditions | cell viability [%]
0.000781 µM | 112
0.00234 µM | 154
0.00702 µM | 113
0.0211 µM | 131
0.0632 µM | 85.3
0.19 µM | 94.5
0.569 µM | 103
1.71 µM | 61.4
5.12 µM | 71.1
15.4 µM | 18.5
46.1 µM | 3.76

CCOc1cc(N2CCC(O)CC2)ccc1Nc1ncc2c(n1)N(C)c1ccccc1C(=O)N2C
AUC of viability dose-response curve
Conditions | NOMO1 [2] | P12-Ichikawa [6] | SEM cells [1]
HPLM + 10% dialyzed FBS | 321 | 350 | 441
RPMI 5 mM glucose + 10% FBS | 301 | 352 | 421
RPMI 5 mM glucose + 10% dialyzed FBS | 318 | 370 | 428

SEM cells [4], HPLM + 10% dialyzed FBS
Conditions | cell viability [%]
0.000781 µM | 106
0.00234 µM | 117
0.00702 µM | 133
0.0211 µM | 126
0.0632 µM | 130
0.19 µM | 133
0.569 µM | 139
1.71 µM | 146
5.12 µM | 119
15.4 µM | 94.9
46.1 µM | 7.22

FC1=CC2=C3[N](CCN(CC3=C1)C(=O)N4CCCCC4)C=C2C/5=C(C(=O)NC5=O)\C6=CN=C7C=CC=C[N]67
AUC of viability dose-response curve
Conditions | NOMO1 [2] | P12-Ichikawa [6] | SEM cells [1]
HPLM + 10% dialyzed FBS | 461 | 329 | 168
RPMI 5 mM glucose + 10% FBS | 469 | 298 | 159
RPMI 5 mM glucose + 10% dialyzed FBS | 463 | 367 | 159

SEM cells [4], HPLM + 10% dialyzed FBS
Conditions | cell viability [%]
0.000781 µM | 104
0.00234 µM | 109
0.00702 µM | 118
0.0211 µM | 57
0.0632 µM | 11.5
0.19 µM | 9.31
0.569 µM | 8.55
1.71 µM | 10.7
5.12 µM | 8.69
15.4 µM | 5.56
46.1 µM | 6.04

C[C@H](c1ccc(F)cc1CCCC(=O)O)N(c1cc(F)ccc1F)[S+](=O)([O-])c1ccc(Cl)cc1
AUC of viability dose-response curve
Conditions | NOMO1 [2] | P12-Ichikawa [6] | SEM cells [1]
HPLM + 10% dialyzed FBS | 452 | 454 | 462
RPMI 5 mM glucose + 10% FBS | 455 | 449 | 465
RPMI 5 mM glucose + 10% dialyzed FBS | 450 | 447 | 461

c1ccc2c(CCNc3ccc(Nc4ccncc4)cc3)c[nH]c2c1
AUC of viability dose-response curve
Conditions | NOMO1 [2] | P12-Ichikawa [6] | SEM cells [1]
HPLM + 10% dialyzed FBS | 426 | 444 | 312
RPMI 5 mM glucose + 10% FBS | 430 | 429 | 282
RPMI 5 mM glucose + 10% dialyzed FBS | 425 | 418 | 308
